Assay results as given in patent US20080269251A1, “Substituted Pyrazinone Derivatives as Alpha2C-Adrenoreceptor Antagonists” (priority 2005, published 2008).

Columns and labels:
5HT-transporter = molecular target: T1, 5HT-transporter (Homo sapiens, UniProt P31645); test: Binding experiment for the 5HT-transporter ([3H]paroxetine, human platelet membranes); details: [3H]paroxetine 0.5 nM, 60 min at 25° C., read-out: h-5HTT pIC50 (converted)
T1 construct: Human platelet membranes (Oceanix Biosciences Corporation, Hanover, Md., USA) were thawed; tissue Oceanix Biosciences Corporation, Hanover, Md., USA; host or cells: human platelet membranes
T1 sequence (P31645 whole entry): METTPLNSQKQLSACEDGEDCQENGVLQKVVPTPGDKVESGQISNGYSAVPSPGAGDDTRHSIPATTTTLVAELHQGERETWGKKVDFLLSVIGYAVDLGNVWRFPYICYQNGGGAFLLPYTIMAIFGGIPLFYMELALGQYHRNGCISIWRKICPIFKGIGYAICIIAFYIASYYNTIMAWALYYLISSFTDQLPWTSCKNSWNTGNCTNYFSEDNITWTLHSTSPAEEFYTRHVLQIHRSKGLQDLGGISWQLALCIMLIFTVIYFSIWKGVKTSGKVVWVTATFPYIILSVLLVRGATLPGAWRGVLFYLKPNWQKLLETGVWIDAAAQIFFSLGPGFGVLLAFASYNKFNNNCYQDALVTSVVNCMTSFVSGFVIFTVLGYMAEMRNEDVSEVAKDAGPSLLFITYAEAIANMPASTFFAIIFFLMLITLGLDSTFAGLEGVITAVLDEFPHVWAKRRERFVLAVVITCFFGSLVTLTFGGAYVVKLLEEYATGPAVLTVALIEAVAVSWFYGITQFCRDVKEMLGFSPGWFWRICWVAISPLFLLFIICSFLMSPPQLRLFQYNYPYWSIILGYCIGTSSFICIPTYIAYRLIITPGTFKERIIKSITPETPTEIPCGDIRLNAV
Method in brief: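 Competition binding of [3H]paroxetine to human platelet membranes in Tris-HCl 50 mM with 120 mM NaCl and 5 mM KCl; bound radioligand separated by GF/B filtration and counted.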

[1] = molecular target: T2, human adrenergic-α2A receptor (Homo sapiens, UniProt P08913); test: Radioligand binding experiment for hα2A-adrenergic receptor ([3H]raulwolscine); details: [3H]raulwolscine 1 nM, 60 minutes at 25° C.; read-out: h-α2A pIC50 (converted)
T2 construct: expressed in transfected cells; host or cells: CHO cells, stably transfected; membrane preparation
T2 sequence (P08913 1-465): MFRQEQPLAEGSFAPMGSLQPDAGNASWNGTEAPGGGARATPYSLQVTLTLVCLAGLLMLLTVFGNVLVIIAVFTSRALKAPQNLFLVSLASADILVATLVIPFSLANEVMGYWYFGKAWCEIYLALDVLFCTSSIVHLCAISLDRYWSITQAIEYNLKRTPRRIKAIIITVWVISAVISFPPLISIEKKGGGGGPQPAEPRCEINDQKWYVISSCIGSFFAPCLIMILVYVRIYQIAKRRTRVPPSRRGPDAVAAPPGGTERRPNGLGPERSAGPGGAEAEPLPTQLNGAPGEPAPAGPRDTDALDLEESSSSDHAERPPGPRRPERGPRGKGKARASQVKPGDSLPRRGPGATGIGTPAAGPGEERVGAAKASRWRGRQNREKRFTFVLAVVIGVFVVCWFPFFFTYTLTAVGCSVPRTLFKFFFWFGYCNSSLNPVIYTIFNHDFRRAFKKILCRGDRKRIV
Method in brief: (§1)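 CHO membranes expressing human α2A or α2C receptors were incubated with 1 nM [^3H]raulwolscine for 60 min at 25° C in glycylglycine 25 mM, pH 8.0, then filtered. Nonspecific binding was defined with 1 μM oxymetazoline for α2A and 1 μM spiroxatrine for α2C. pIC50 came from sigmoidal competition curves.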

[2] = molecular target: T3, human adrenergic-α2C receptor (Homo sapiens, UniProt P18825); test: Radioligand binding experiment for hα2C-adrenoceptor ([3H]raulwolscine); details: [3H]raulwolscine 1 nM, 60 minutes at 25° C.; read-out: h-α2C pIC50 (converted)
T3 construct: expressed in transfected cells; host or cells: CHO cells, stably transfected; membrane preparation
T3 sequence (P18825 1-462): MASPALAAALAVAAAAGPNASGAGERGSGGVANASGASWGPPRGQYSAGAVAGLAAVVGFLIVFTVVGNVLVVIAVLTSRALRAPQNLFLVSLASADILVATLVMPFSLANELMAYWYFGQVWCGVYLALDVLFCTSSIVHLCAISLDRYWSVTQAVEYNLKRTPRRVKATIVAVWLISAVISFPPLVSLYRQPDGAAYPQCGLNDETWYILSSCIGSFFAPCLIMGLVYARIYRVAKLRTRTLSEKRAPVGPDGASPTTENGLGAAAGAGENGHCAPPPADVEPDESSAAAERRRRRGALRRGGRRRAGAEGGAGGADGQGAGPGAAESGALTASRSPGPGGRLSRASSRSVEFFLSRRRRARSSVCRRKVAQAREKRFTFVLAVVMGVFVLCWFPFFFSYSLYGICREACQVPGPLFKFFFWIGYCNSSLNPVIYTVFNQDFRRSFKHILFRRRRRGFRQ
Method in brief: as §1

For `O=c1c(NC2CCN(Cc3ccc4ccccc4c3)CC2)nccn1-c1ccncc1` [6-07], the IC50 (5HT-transporter) was 100 nM, the IC50 [1] was 200 nM and the melting point was 125.1 °C. The IC50 [2] was 63.1 nM.
`O=c1c(NC2CCN(Cc3ccc4ccccc4c3)CC2)nccn1-c1ccc2c(c1)CN(Cc1ncc[nH]1)CC2` [6-14] gave an IC50 (5HT-transporter) of 15.8 nM, an IC50 [1] of 79.4 nM and a melting point of 134.7 °C. It also gave an IC50 [2] of 6.31 nM.
